Data on three compounds can be found in patent publication US10767160B2, “Methods for modulating production profiles of recombinant proteins” (ARES TRADING S.A., priority 2015, dated 2020).

Read-outs that look alike come from different tables or passages of the source.

Data set [1] has as its system recombinant CHO cells. The settings on record: batch culture, end of production run, after 8 days of culture; cited from earlier work.
Data set [2] concerns recombinant CHO cells. The settings on record: perfusion batch culture, within 6 days of treatment; cited from earlier work.
Data set [3] has as its system CHO-S cells expressing IgG1 mAb1. Nature of the data set: Fed-batch culture in microplates, host cells expressing mAb1. Format: cell-based, Chinese Hamster. On the procedure: (§1) Assays were performed with 2 CHO cell lines: • CHO-S cells expressing IgG1 mAb1, herein “Cells mAb1” or “mAb1 cells”. “mAb1” is a fully human monoclonal antibody directed against a soluble protein. Its isoelectric point (pI) is about 8.20-8.30. • CHO-K1 cells expressing IgG1 mAb2, herein “Cells mAb2” or “mAb2 cells”. “mAb2” is a humanised monoclonal antibody directed against a receptor found on the cell membrane. Its isoelectric point (pI) is about 9.30. 2) Cell Expansion
(§2) Cells expressing mAb2 were inoculated at 0.2×10^6 cells per millilitre (mL), whereas cells expressing mAb1 were inoculated at 0.3×10^6 cells per mL.
(§3) All assays were performed in fed-batch culture. The host cells were cultured in fed-batch system either in microplates (“Deep well plate”) or in Spin Tubes®, and incubated at 36.5° C., 90% relative humidity, 5% CO2 and 320 rpm shaking during 14 days.
(§4) Viable cell density and viability were measured with the Guava easyCyte® flow cytometer or with the ViCell.
(§5) Antibody titres were measured with the fortêBIO Octet® or with Biacore C®.
(§6) Glycosylation profiles were established by capillary gel electrophoresis with laser-induced fluorescence (CGE-LIF). Dosages of aggregates and fragments were performed respectively via Size Exclusion High Performance Liquid Chromatography (SE-HPLC) and SDS-capillary gel electrophoresis.

The test system is the same in data set [4]. As to the kind of experiment: Fed-batch culture in Spin Tubes, host cells expressing mAb1. Format: cell-based, Chinese Hamster. As for the experimental part:
as §1, §2, §3, §4, §5, §6

The test system of data set [5] is CHO-K1 cells expressing IgG1 mAb2. The class given is cell-based, Chinese Hamster. On the procedure:
as §1, §2, §3, §4, §5, §6

[6] abbreviates: about 0.4 μM to about 17 μM, microplates.
Where [7] appears, read: about 83 μM to about 833 μM, microplates.
Setting [8] is: about 4.3 and/or about 8.5 μM, Spin Tubes.
[9] abbreviates: about 167 μM or about 417 μM, microplates.
[10] abbreviates: up to 25 μM and 41.7 μM, microplates.
Where [11] appears, read: similar concentrations (8.5 μM), Spin tubes.

In general, cell viability refers to a per cent measure of how many cells are alive, often set against a control. In the case of `CCCC(=O)[O-].[Na+]` [sodium butyrate], the cell viability entry with recombinant CHO cells [1] is given as “less than 45%”; in the data set with recombinant CHO cells [2], 15%.
Take `O=S(=O)(O)c1cc(Nc2nc(Cl)nc(Nc3ccc(Nc4nc(Cl)nc(Nc5cc(S(=O)(=O)O)cc6cc(S(=O)(=O)O)c(N=Nc7ccccc7S(=O)(=O)O)c(O)c56)n4)cc3)n2)c2c(O)c(N=Nc3ccccc3S(=O)(=O)O)c(S(=O)(=O)O)cc2c1` [Reactive Red 120]: the “viable cell density increase compared to control” value in data set [3] (17.3 μM, day 7, microplates) came to 1.5 factor. The “titre increase compared to control” value in data set [3] (17.3 μM, day 14, microplates) was determined as 1.3 factor. The “maximum titre relative to control cells” value in data set [3] (83 μM, microplates) amounted to 1.2 fold. Besides, in data set [3] (setting [6]), the cell viability entry was “(slightly) reduced”, the titre entry is reported as “increased significantly” and the viable cell density result is listed as “increased significantly”. The toxicity limit result in data set [3] (about 17 μM, microplates) is “did not seem to have been reached”. In data set [3] (setting [7]), the cell viability entry is listed as “decrease significantly”, the titre entry was “remained superior or equal to what was obtained with control cells” and the viable cell density result is given as “decrease significantly”. Also, the toxicity entry in data set [3] (above 83 μM, microplates) is recorded as “becomes toxic”. Further, the titre increase in data set [4] (8.6 μM, Spin Tubes) is 1.2 factor. Moreover, the “cell viability compared to control” value in data set [4] (about 4.3 and/or about 8.5 μM, after day 10, Spin Tubes) is “only slightly affected”. Besides, the viable cell density entry in data set [4] (about 4.3 and/or about 8.5 μM, days 5-9, Spin Tubes) is listed as “increased”. Besides, in data set [5] (setting [8]), the specific productivity entry is “increase” and the titre entry is “increase”. Further, the “viability compared to control” value in data set [5] (until the end of the culture, Spin Tubes) is “maintained”.
On to `Nc1c(S(=O)(=O)O)cc(Nc2ccc(Nc3nc(Cl)nc(Nc4ccccc4S(=O)(=O)O)n3)c(S(=O)(=O)O)c2)c2c1C(=O)c1ccccc1C2=O` [Cibacron Blue 3GA], for which, in data set [3] (about 83 μM, microplates), the titre entry is “still significantly increased”. In addition, in data set [3] (setting [9]), the cell viability entry is listed as “decreased” and the titre entry is “impact on the titre was observed”. The “quantity of secreted recombinant protein (titre) compared to control” value in data set [3] (about 8.3 to about 41.7 μM, microplates) was found to be 1.5 fold. In data set [3] (setting [10]), the titre result is “increased significantly” and the viable cell density result is reported as “increased significantly”. In data set [4] (8.5 μM, Spin tubes), the specific productivity result was “significantly increased” and the “titre increase at the end of the culture” value amounted to 1.25 factor. Further, the “maximum density of viable cells” value in data set [4] (8.5 μM, days 6-9, Spin tubes) was “increased”. For the same compound, the “viability compared to control” value in data set [4] (8.5 μM, starting on day 7, Spin tubes) was “decrease of viability”. Besides, in data set [5] (setting [11]), the “productivity of antibodies mAb2” value is “increased” and the “titre multiplied at the end of cell culture” value amounted to 1.2.
